Test results as given in the supplement of paper PMC9265050, “Inhibition of RNA Binding in SND1 Increases the Levels of miR-1-3p and Sensitizes Cancer Cells to Navitoclax” (Cancers, 2022).

Tested on: SW480
Test: drug sensitivity score (DSS, integrated dose-response area); higher = more sensitive (stronger viability reduction); extreme values may be limits of the assay
Method in brief: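 The drug sensitivity score is the integrated area under a fitted non-linear dose–response model. It was derived from SW480 cells with doxycycline-inducible control or SND1-targeting shRNA, induced with 0.1 µg/mL doxycycline for 7 days and plated at 1000 cells per well on 384-well plates of 525 commercially available small-molecule inhibitors at five concentrations. CellTiter-Glo measured viability after 72 h.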

[1] = shRNA: SND1 shRNA1 (SND1 silenced)
[2] = shRNA: control shRNA (non-targeting)
[3] = shRNA: SND1 shRNA2 (SND1 silenced)

C[C@@H]1CN(CC(=O)Nc2ccc3c(c2)Cc2cccc(-c4cc(=O)cc(N5CCOCC5)o4)c2S3)C[C@H](C)O1
drug sensitivity score [1]: 6.4 DSS | drug sensitivity score [2]: 5.3 DSS

COc1ccc(C[C@H](NC(=O)[C@H](C)NC(=O)CN2CCOCC2)C(=O)N[C@@H](Cc2ccccc2)C(=O)C2(C)CO2)cc1 (stereo in doubt) [ONX-0914]
drug sensitivity score [1]: 12.9 DSS | drug sensitivity score [3]: 12.6 DSS | drug sensitivity score [2]: 15.4 DSS

Cn1cc(C[C@@H](N)C(=O)O)c2ccccc21 [1-methyl-D-tryptophan]
drug sensitivity score [1]: 0 DSS | drug sensitivity score [2]: 0 DSS

COc1cc2c(cc1O)CC[C@@H]1[C@@H]2CC[C@]2(C)[C@@H](O)CC[C@@H]12 [2-methoxyestradiol]
drug sensitivity score [1]: 5.5 DSS | drug sensitivity score [3]: 6.6 DSS | drug sensitivity score [2]: 6.1 DSS

CC/C(=C(\c1ccc(O)cc1)c1ccc(OCCN(C)C)cc1)c1ccccc1 [4-hydroxytamoxifen]
drug sensitivity score [1]: 6.8 DSS | drug sensitivity score [3]: 5.4 DSS | drug sensitivity score [2]: 8.7 DSS

Nc1ncnc2c1nc(N)n2[C@@H]1O[C@H](CO)[C@@H](O)[C@H]1O [8-amino-adenosine]
drug sensitivity score [1]: 23.6 DSS | drug sensitivity score [3]: 24.3 DSS | drug sensitivity score [2]: 22.2 DSS

Nc1ncnc2c1nc(Cl)n2[C@@H]1O[C@H](CO)[C@@H](O)[C@H]1O [8-chloro-adenosine]
drug sensitivity score [1]: 13.5 DSS | drug sensitivity score [3]: 13.3 DSS | drug sensitivity score [2]: 11.3 DSS

CCCCC/C=C/C=C1/C(=O)C=C[C@@H]1C/C=C\CCCC(=O)O [15D-PGJ2]
drug sensitivity score [1]: 1.7 DSS | drug sensitivity score [3]: 0 DSS | drug sensitivity score [2]: 0 DSS

COc1cc(O)c2c(c1)/C=C/C[C@H](O)[C@H](O)C(=O)/C=C\C[C@H](C)OC2=O [(5Z)-7-Oxozeaenol]
drug sensitivity score [1]: 3.7 DSS | drug sensitivity score [3]: 2.6 DSS | drug sensitivity score [2]: 3.6 DSS

COc1ccc(S(=O)(=O)Nc2cccnc2Nc2ccc(O)cc2)cc1 [ABT-751]
drug sensitivity score [1]: 9 DSS | drug sensitivity score [3]: 9.1 DSS | drug sensitivity score [2]: 9.5 DSS

Cc1ccccc1C(C(=O)NC1CCCCC1)N(C(=O)Cn1ccnc1C)c1cccc(F)c1 (stereo not drawn) [AGI-5198]
drug sensitivity score [1]: 0 DSS | drug sensitivity score [2]: 3.6 DSS

O=C(Nc1cccc(C(F)(F)F)c1)Nc1cc(S(=O)(=O)NC2CC2)ccc1-c1ccsc1 [AGI-6780]
drug sensitivity score [1]: 0.2 DSS | drug sensitivity score [2]: 0.5 DSS

COc1ccc2c(OCc3nnc4ccc(-c5ccccc5)nn34)ccnc2c1 [AMG-208]
drug sensitivity score [1]: 0 DSS | drug sensitivity score [3]: 2 DSS | drug sensitivity score [2]: 0.5 DSS

CC(C)[C@@H](CS(=O)(=O)C(C)C)N1C(=O)[C@@](C)(CC(=O)O)C[C@H](c2cccc(Cl)c2)[C@H]1c1ccc(Cl)cc1 [AMG-232]
drug sensitivity score [1]: 0 DSS | drug sensitivity score [3]: 0 DSS | drug sensitivity score [2]: 0 DSS

Cc1csc(-c2nnc(Nc3ccc(Oc4ncccc4-c4ccnc(N)n4)cc3)c3ccccc23)c1 [AMG-900]
drug sensitivity score [1]: 5 DSS | drug sensitivity score [3]: 0 DSS | drug sensitivity score [2]: 1.7 DSS

CC1CCC(n2c3cnccc3c3cnc(Nc4ccc5c(n4)CCN(C(=O)CO)C5)nc32)CC1 (stereo not drawn) [AMG-925]
drug sensitivity score [1]: 1.1 DSS | drug sensitivity score [3]: 0 DSS | drug sensitivity score [2]: 0 DSS

COCC1(CO)C(=O)C2CCN1CC2 (stereo not drawn) [APR-246]
drug sensitivity score [1]: 0 DSS | drug sensitivity score [3]: 1.1 DSS | drug sensitivity score [2]: 2 DSS

CC(C)[C@H](C(=O)Nc1ccc(C(=O)NO)cc1)c1ccccc1 [AR-42]
drug sensitivity score [1]: 19.6 DSS | drug sensitivity score [3]: 12.9 DSS | drug sensitivity score [2]: 10.9 DSS

CNC(=O)c1ccc(N2C(=S)N(c3cnc(C#N)c(C(F)(F)F)c3)C(=O)C23CCC3)cc1F [ARN 509]
drug sensitivity score [1]: 0.7 DSS | drug sensitivity score [3]: 0 DSS | drug sensitivity score [2]: 0.9 DSS

COc1cc(N2CCC(N3CCN(C)CC3)CC2)ccc1Nc1ncnc(Nc2ccccc2S(=O)(=O)C(C)C)n1 [ASP3026]
drug sensitivity score [1]: 4.6 DSS | drug sensitivity score [3]: 5 DSS | drug sensitivity score [2]: 8 DSS

O=C(NC1CCNCC1)c1n[nH]cc1NC(=O)c1c(Cl)cccc1Cl [AT7519]
drug sensitivity score [1]: 10.7 DSS | drug sensitivity score [3]: 9.1 DSS | drug sensitivity score [2]: 14.4 DSS

O=C(Nc1c[nH]nc1-c1nc2ccc(CN3CCOCC3)cc2[nH]1)NC1CC1 [AT9283]
drug sensitivity score [1]: 3.6 DSS | drug sensitivity score [3]: 0 DSS | drug sensitivity score [2]: 0.6 DSS

CN[C@@H](C)C(=O)N[C@H]1CN(C(=O)CC(C)C)CC[C@H]2CC[C@@H](C(=O)NC(c3ccccc3)c3ccccc3)N2C1=O [AT-406]
drug sensitivity score [1]: 0 DSS | drug sensitivity score [3]: 0 DSS | drug sensitivity score [2]: 0 DSS

CC[C@H](CC#N)OC(=O)N[C@@H](C)c1cccc(NC(=O)Nc2ccc(-c3cnco3)c(OC)c2)c1 [AVN944]
drug sensitivity score [1]: 13.4 DSS | drug sensitivity score [2]: 12.3 DSS

COc1cc(N2CCN(C)CC2)ccc1Nc1nccc(-c2cn(C)c3cnccc23)n1 [AZ191]
drug sensitivity score [1]: 6.8 DSS | drug sensitivity score [2]: 7.9 DSS

COc1cc(OC2CCN(C)CC2)ccc1Nc1ncc2c(n1)n(C1CCCC1)c(=O)n2C [AZ 3146]
drug sensitivity score [1]: 10.9 DSS | drug sensitivity score [3]: 10.6 DSS | drug sensitivity score [2]: 9.5 DSS

CC(C)Oc1cc(Nc2nc(N[C@@H](C)c3ccc(F)cn3)ncc2Cl)n[nH]1 [AZ-23]
drug sensitivity score [1]: 3.1 DSS | drug sensitivity score [3]: 1.9 DSS | drug sensitivity score [2]: 4.5 DSS

N[C@@H]1CCCN(c2c(/C=C3\SC(=O)NC3=O)cccc2-c2ccccc2)C1 [AZD1208]
drug sensitivity score [1]: 0 DSS | drug sensitivity score [2]: 0 DSS

Cc1cc(Nc2nc(N[C@@H](C)c3ncc(F)cn3)ncc2Cl)[nH]n1 [AZD1480]
drug sensitivity score [1]: 0.6 DSS | drug sensitivity score [3]: 0 DSS | drug sensitivity score [2]: 1.1 DSS

CNC(=O)c1cccc(-c2ccc3c(N4CCOC[C@@H]4C)nc(N4CCOC[C@@H]4C)nc3n2)c1 [AZD2014]
drug sensitivity score [1]: 13.2 DSS | drug sensitivity score [3]: 12.6 DSS | drug sensitivity score [2]: 9.6 DSS

COc1cc(CCc2cc(NC(=O)c3ccc(N4CC(C)NC(C)C4)cc3)n[nH]2)cc(OC)c1 (stereo not drawn) [AZD4547]
drug sensitivity score [1]: 2.9 DSS | drug sensitivity score [3]: 0 DSS | drug sensitivity score [2]: 1.6 DSS

CN(C)C(=O)c1ccc(S(=O)(=O)c2ccc(NC(=O)[C@@](C)(O)C(F)(F)F)c(Cl)c2)cc1 [AZD7545]
drug sensitivity score [1]: 0 DSS | drug sensitivity score [3]: 2.4 DSS | drug sensitivity score [2]: 0 DSS

NC(=O)Nc1cc(-c2cccc(F)c2)sc1C(=O)N[C@H]1CCCNC1 [AZD7762]
drug sensitivity score [1]: 7.8 DSS | drug sensitivity score [3]: 8.6 DSS | drug sensitivity score [2]: 8.7 DSS

COc1ccc(-c2ccc3c(N4CCOC[C@@H]4C)nc(N4CCOC[C@@H]4C)nc3n2)cc1CO [AZD8055]
drug sensitivity score [1]: 20.6 DSS | drug sensitivity score [3]: 19.2 DSS | drug sensitivity score [2]: 14.9 DSS

N#Cc1ccc2[nH]c(O)c(-c3ccc(CN4CCOCC4)cn3)c2c1 [AZD-1080]
drug sensitivity score [1]: 1.3 DSS | drug sensitivity score [2]: 1.1 DSS

Cc1ncc(-c2ccnc(Nc3ccc(S(C)(=O)=O)cc3)n2)n1C(C)C [AZD-5438]
drug sensitivity score [1]: 11.8 DSS | drug sensitivity score [2]: 12.7 DSS

Cc1cc([C@@H](C)Nc2ccccc2C(=O)O)c2nc(N3CCOCC3)cc(=O)n2c1 [AZD-6482]
drug sensitivity score [1]: 0 DSS | drug sensitivity score [3]: 4.3 DSS | drug sensitivity score [2]: 3 DSS

C[C@@H](Nc1cc(F)cc(F)c1)c1cc(C(=O)N(C)C)cc2c(=O)cc(N3CCOCC3)oc12 [AZD-8186]
drug sensitivity score [1]: 0 DSS | drug sensitivity score [3]: 0 DSS | drug sensitivity score [2]: 0 DSS

Cc1cc(C(=O)NOCCO)c(Nc2ccc(I)cc2F)n(C)c1=O [AZD-8330]
drug sensitivity score [1]: 32.4 DSS | drug sensitivity score [3]: 22.9 DSS | drug sensitivity score [2]: 18.4 DSS
